Patent US5798336A, “Antimicrobial peptides” (priority 1995, dated 1998)
Where a SMILES comes first, the peptide text is derived from it.

Experiments:
S. aureus strain 8325-4 [1] = details: for % Survival of S. aureus: Table 3, all peptides at 5×10^-4 M
[2] = system: N. gonorrhoeae strain FA 102
P. aeruginosa ATCC 27853 = details: ATCC 27853, 500
[3] = system: N. gonorrhoeae strain WS1; details: strain WS1, 500
S. aureus strain 8325-4 [4] = details: strain 8325-4, 500

Molecule: CC[C@H](C)[C@H](N)C(=O)N[C@H](C(=O)NCC(=O)NCC(=O)N[C@@H](CCCNC(=N)N)C(=O)O)C(C)C [IVGGR] (H-IVGGR-OH)
- ED50 (S. aureus strain 8325-4 [1]): > 875 µM

Molecule: N=C(N)NCCC[C@H](NC(=O)[C@H](CCC(N)=O)NC(=O)[C@H](CC(N)=O)NC(=O)[C@H](Cc1ccc(O)cc1)NC(=O)[C@H](CCC(N)=O)NC(=O)[C@@H]1CCCN1C(=O)[C@@H](N)Cc1c[nH]cn1)C(=O)O [HPQYNQR] (H-HPQYNQR-OH)
- ED50 for N. gonorrhoeae [2]: 50 µM

Molecule: CC[C@H](C)[C@H](N)C(=O)N[C@H](C(=O)NCC(=O)NCC(=O)N[C@@H](CCCNC(=N)N)C(=O)O)[C@@H](C)CC [IIGGR] (H-IIGGR-OH)
- ED50 (S. aureus strain 8325-4 [1]): 430 µM

Molecule: H^1m QYNQR
- % Survival of S. aureus (S. aureus strain 8325-4 [1]): 37.3%

Molecule: CC(C)C[C@H](NC(=O)CNC(=O)[C@H](CCC(=O)O)NC(=O)[C@H](CCC(N)=O)NC(=O)[C@H](C)NC(=O)[C@H](CCCNC(=N)N)NC(=O)[C@@H]1CCCN1C(=O)[C@H](CC(C)C)NC(=O)[C@H](C)NC(=O)[C@@H](NC(=O)[C@@H]1CCCN1C(=O)[C@H](CC(N)=O)NC(=O)[C@@H](NC(=O)[C@H](CC(N)=O)NC(=O)[C@H](CCCNC(=N)N)NC(=O)[C@H](CC(N)=O)NC(=O)[C@H](CCCNC(=N)N)NC(=O)[C@H](CCCNC(=N)N)NC(=O)[C@@H](NC(=O)[C@@H](N)CCCNC(=N)N)C(C)C)C(C)C)C(C)C)C(=O)O [CG 97-116] (H-RVRRNRNVNPVALPRAQEGL-OH)
- Log Kill (500 μg/ml) P. aeruginosa ATCC 27853 (P. aeruginosa ATCC 27853): 5.93 log
- Log Kill (500 μg/ml) P. aeruginosa ATCC 278533 (P. aeruginosa ATCC 27853): 0.22 log
- Log Kill (500 μg/ml) N. gonorrhoeae strain WS1 [3]: -0.21 log
- Log Kill (500 μg/ml) N. gonorrhoeae strain WSI [3]: 0.2 log
- Log Kill (500 μg/ml) S. aureus strain 8325-4 (S. aureus strain 8325-4 [4]): -0.1 log

Molecule: H^3m PQYNQR
- % Survival of S. aureus (S. aureus strain 8325-4 [1]): 18.3%

Molecule: H^Benzyl PQYNQR
- % Survival of S. aureus (S. aureus strain 8325-4 [1]): 99.0%

Molecule: CC[C@H](C)[C@H](N)C(=O)N[C@H](C(=O)NCC(=O)NCC(=O)N[C@@H](CCCNC(=N)N)C(=O)N[C@@H](CCC(=O)O)C(=O)N[C@@H](CO)C(=O)N[C@@H](CCCNC(=N)N)C(=O)N1CCC[C@H]1C(=O)N[C@@H](Cc1c[nH]cn1)C(=O)N[C@@H](CO)C(=O)N[C@@H](CCCNC(=N)N)C(=O)N1CCC[C@H]1C(=O)N[C@@H](Cc1ccc(O)cc1)C(=O)N[C@@H](CCSC)C(=O)N[C@@H](C)C(=O)N[C@@H](Cc1ccc(O)cc1)C(=O)N[C@@H](CC(C)C)C(=O)N[C@@H](CCC(N)=O)C(=O)N[C@H](C(=O)O)[C@@H](C)CC)[C@@H](C)CC [CG 1-20] (H-IIGGRESRPHSRPYMAYLQI-OH)
- Log Kill (500 μg/ml) P. aeruginosa ATCC 27853 (P. aeruginosa ATCC 27853): 5.507 log
- Log Kill (500 μg/ml) P. aeruginosa ATCC 278533 (P. aeruginosa ATCC 27853): 1.0 log
- Log Kill (500 μg/ml) N. gonorrhoeae strain WS1 [3]: 2.57 log
- Log Kill (500 μg/ml) N. gonorrhoeae strain WSI [3]: 0.43 log
- Log Kill (500 μg/ml) S. aureus strain 8325-4 (S. aureus strain 8325-4 [4]): 0.3 log

Molecule: H^Dnp PQYNQR
- % Survival of S. aureus (S. aureus strain 8325-4 [1]): 102.2%

Molecule: O=C(N[C@H](CO)[C@H](O)c1ccc([N+](=O)[O-])cc1)C(Cl)Cl [Chloramphenicol, reference compound]
- bactericidal capacity compared with antibiotics and defensin pool (in words) ([2]; N. gonorrhoeae strain FA 102, each compound 5.0×10^-4 M, 30 min at 37° C., FIG. 5): more effective at this concentration than the defensin pool or the test peptides

Molecule: CSCC[C@H](NC(=O)[C@H](CO)NC(=O)[C@@H](NC(=O)[C@H](CCCNC(=N)N)NC(=O)CNC(=O)[C@H](Cc1c[nH]c2ccccc12)NC(=O)CNC(=O)[C@H](C)NC(=O)[C@@H](NC(=O)[C@@H](NC(=O)[C@@H](N)CS)[C@@H](C)O)C(C)C)C(C)C)C(=O)N[C@@H](CCCNC(=N)N)C(=O)N[C@@H](CCCNC(=N)N)C(=O)NCC(=O)N[C@H](C(=O)O)[C@@H](C)O [CG 122-136] (H-CTVAGWGRVSMRRGT-OH)
- Log Kill (500 μg/ml) P. aeruginosa ATCC 27853 (P. aeruginosa ATCC 27853): 4.75 log
- Log Kill (500 μg/ml) N. gonorrhoeae strain WS1 [3]: 4.18 log
- Log Kill (500 μg/ml) S. aureus strain 8325-4 (S. aureus strain 8325-4 [4]): 0 log
